Key:
Wiga rats = test: Reserpine interaction test in rats; type: in vivo, rat; settings: Rattus norvegicus, po; Time 60; reserpine 10 mg/kg SC; Wiga rats; read-out: ED50, reversal of reserpine-induced ptosis
Description: 4) Reserpine Interaction Test in Rats
It was investigated to what extent the mydriatic action of test compounds was sufficient to counteract the miosis induced by the monoamines-depleting agent reserpine (10 mg/kg; SC) in Wiga rats.
The effects are illustrated in FIG. 3. […] The reference mGlu2 NAMs RO-4995819 (40 mg/kg, p.o.), RO-4491533 (40 mg/kg, p.o.; 10 mg/kg, s.c.) and [CAS 579473-69-1]

human mGlu2 receptor = target: T1, human mGlu2 receptor (Homo sapiens, UniProt Q14416); test: [35S]GTPγS binding assay (mGluR2 negative allosteric modulation); type: biochemical; settings: for IC50: read-out: GTPγS - hmGluR2 anGT pIC50 (converted); for Emax: relative maximal effect: maximal % inhibition relative to the control glutamate response, read-out: GTPγS - hmGluR2 anGT Emax
T1 construct: expressed in transfected cells; host or cells: CHO cells (membrane preparation)
In short: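 Membranes from butyrate-stimulated CHO cells expressing human mGlu2; 7 μg protein in HEPES pH 7.4, 100 mM NaCl, 3 mM MgCl2, 10 μM GDP, 10 μg/ml saponin. Compound tested against EC80-equivalent glutamate; 0.1 nM [35S]GTPγS, 30 min, 30 °C; filtration, scintillation counting. Data as % of control glutamate response.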

rats = test: Reversal of the effect of the mGluR2 PAM JNJ-42153605 on scopolamine-induced hyperlocomotion; type: in vivo; settings: Rattus norvegicus, 1 h, test compound 60 min before recording, criterion total distance >1500 cm
Description: 2) Reversal of the Effect of the mGluR2 PAM JNJ-42153605 on Scopolamine-Induced Hyperlocomotion Apparatus
Motor activity was measured in microprocessor-based motor activity arenas (closed gray PVC cylinders with a height of 39 cm and a diameter of 31 cm). Each arena was placed on an infrared LED (8×8 LEDs) lit box (white PVC squared box; 40×40 cm^2; height 12.5 cm. An infrared-sensitive tube camera and a white light source were mounted to the ceiling above the observation chamber to track the animal. The total distance traveled (cm) was recorded and analyzed using the Noldus Ethovision XT Video Tracking System (Version 7.0.418; Noldus, Wageningen, The Netherlands). The intensity of the light within the activity cages (measured in the centre at the level of the floor) ranged between 4 and 8 LUX.
The rats were pretreated with test compound or vehicle at 60 min before the start of the activity recordings and placed into individual cages. The rats were challenged with JNJ-42153605 (3-(cyclopropylmethyl)-7-(4-phenylpiperidin-1-yl)-8-(trifluoromethyl)[1,2,4]triazolo[4,3-a]pyridine; WO2010/130424; Cid et al. J. Med. Chem. 2012, 55, 8770-8789) (20 mg/kg, i.v.) 30 min before the start of the activity recording combined with scopolamine (0.16 mg/kg, i.v.) just before the start of the activity measurements Immediately after the injection of scopolamine, the rats were placed into the activity monitors and total distance travelled over the first 30 min was measured.
Animals receiving the combination of JNJ-42153605 and scopolamine (n=433) almost always travelled a distance of less than 1500 cm (<1500 cm) (only 2.5% of the control rats travelled a distance of more than 1500 cm (>1500 cm)). On the other hand, animals challenged with scopolamine alone (n=215) always travelled a total distance of more than 1500 cm (>1500 cm) and almost always (in 95.8% of the rats) a distance of more than 4400 cm (>4400 cm). […] For reversal of the inhibitory effect of JNJ-42153605 on the scopolamine-induced hyperlocomotion, two all-or-none criteria were adopted: (1) reversal: total distance >1500 cm; (2) normalization: total distance >4400 cm.

Male Wiga Wistar rats = test: Reversal of LY-404039-induced decrease of palpebral opening in apomorphine-challenged rats; type: in vivo; settings: Rattus norvegicus, reversal of LY-404039-induced decrease of palpebral opening (cumulative score >26) in apomorphine challenged rats
Description: 6) Reversal of LY-404039-Induced Decrease of Palpebral Opening in Apomorphine-Challenged Rats.
Male Wiga Wistar rats (Crl:WI; Charles River Germany; 220±40 g) were housed under standard laboratory conditions (21±2° C.; 50-65% relative humidity; light-dark cycle set at 12 h; lights on at 6.00 h) and fasted overnight prior to the start of the experiments (tap water remained available ad libitum). During the test period, they were housed in individual cages. The local Ethical Committee approved all studies in compliance with the Declaration of Helsinki. Palpebral opening was scored every 5 min over the first hour after injection of apomorphine (1.0 mg/kg, i.v.) in animals either pretreated or not pretreated with LY-404039 (2.5 mg/kg, s.c.) at 1 h prior to the apomorphine injection. The animals were also pretreated with test compound or solvent at a predefined interval before apomorphine challenge. The score system was: (5) exophthalmos, (4) wide open, (3) open for three-quarters, (2) half open, (1) open for one-quarter, (0) closed. The scores for palpebral opening were cumulated over the 60-min observation period. A cumulative palpebral opening score >26 was selected for drug-induced reversal of the LY-404039-induced decrease of palpebral opening (occurrence in 3.2% of control animals pretreated with LY-404039 (n=154) versus in 99.5% of control rats not pretreated with LY-404039 (n=6335)).
In animals receiving apomorphine alone the median palpebral opening is 43 whereas in animals receiving apomorphine and LY-404039, the median palpebral opening is 17.

[1] = membranes from CHO cells transfected with human mGlu2 receptor, glutamate 60 μM, pIC50 = −log IC50 (M)

T1 sequence (Q14416 19-872): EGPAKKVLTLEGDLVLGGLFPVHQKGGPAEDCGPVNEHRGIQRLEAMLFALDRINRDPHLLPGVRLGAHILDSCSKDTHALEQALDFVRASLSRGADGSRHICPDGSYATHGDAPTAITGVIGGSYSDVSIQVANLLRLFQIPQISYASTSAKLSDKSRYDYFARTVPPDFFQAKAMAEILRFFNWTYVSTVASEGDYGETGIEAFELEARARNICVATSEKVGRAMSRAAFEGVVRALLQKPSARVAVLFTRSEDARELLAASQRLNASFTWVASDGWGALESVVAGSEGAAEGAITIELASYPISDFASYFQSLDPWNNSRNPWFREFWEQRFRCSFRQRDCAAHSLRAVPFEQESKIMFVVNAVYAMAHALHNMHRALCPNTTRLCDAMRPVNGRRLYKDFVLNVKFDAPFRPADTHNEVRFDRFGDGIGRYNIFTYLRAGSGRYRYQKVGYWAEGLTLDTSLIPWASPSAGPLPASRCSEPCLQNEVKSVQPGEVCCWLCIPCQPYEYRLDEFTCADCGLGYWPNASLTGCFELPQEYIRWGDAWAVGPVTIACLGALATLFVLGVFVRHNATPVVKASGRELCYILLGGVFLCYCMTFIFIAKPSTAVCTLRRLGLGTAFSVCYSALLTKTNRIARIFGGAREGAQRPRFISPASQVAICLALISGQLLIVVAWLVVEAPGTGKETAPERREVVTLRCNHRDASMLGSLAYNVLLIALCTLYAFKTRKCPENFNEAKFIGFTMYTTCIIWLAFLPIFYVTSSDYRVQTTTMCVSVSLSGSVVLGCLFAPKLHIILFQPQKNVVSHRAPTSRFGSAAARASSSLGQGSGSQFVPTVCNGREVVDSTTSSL

Structure (SMILES) | IC50 (human mGlu2 receptor; [1]) [M] | Emax (human mGlu2 receptor) [%] | melting point | GTPγS - hmGluR2 anGT pIC50 (human mGlu2 receptor; [1]) | ED50 (Wiga rats) [mg/kg] | ED50 (rats; Route PO) [mg/kg] | ED50 (rats; Route SC) [mg/kg] | ED50 (Male Wiga Wistar rats; Route PO) [mg/kg] | ED50 (Male Wiga Wistar rats; Route SC) [mg/kg]
CCOc1cccc(N2C[C@H](C)n3ncc(-c4ccnc(C)c4)c3C2=O)c1 [compound 83] | 7.94e-07 | 104 |  |  | 5 |  |  |  | 
C[C@H]1CN(c2ccc(C(F)(F)F)c(Cl)c2)C(=O)c2c(-c3ccnc(C#N)c3)cnn21 [compound 100] |  | 109 | 144.9 °C | 8.16 |  | > 10 |  |  | 
C[C@H]1CN(c2ccc(C(F)(F)F)cc2)C(=O)c2c(-c3ccnc(N4CCC4)c3)cnn21 [compound 102] | 8.32e-09 | 107 | 129.8 °C |  |  | ≥ 2.5 |  |  | 
Cc1cc(-c2cnn3c2C(=O)N(c2ccc(OC(F)(F)F)cc2)C[C@@H]3C)ccn1 [compound 152] | 1e-08 | 105 | 105.4 °C |  |  | 1.99 |  |  | 
C[C@H]1CN(c2ccc(C(F)(F)F)cc2)C(=O)c2c(-c3ccnc(N(C)C)c3)cnn21 [compound 166] | 2.51e-09 | 102 | 99.8 °C |  |  | 0.5 | ≥ 10 |  | 
Cc1cc(-c2cnn3c2C(=O)N(c2ccc(Cl)cc2Cl)C[C@@H]3C)ccn1 [compound 167] | 7.59e-07 | 105 |  |  |  |  |  | > 40 | 
Cc1cc(-c2cnn3c2C(=O)N(c2ccc(Cl)cc2C)C[C@@H]3C)ccn1 [compound 172] | 1.05e-06 | 105 |  |  |  |  |  |  | > 40
CNc1cc(-c2cnn3c2C(=O)N(c2ccc(C(F)(F)F)c(F)c2)C[C@@H]3C)ccn1 [compound 182] | 8.32e-09 | 106 | 67.8 °C |  |  | 1.99 |  |  | 
CCOc1nc(N2C[C@H](C)n3ncc(-c4ccnc(C)c4)c3C2=O)ccc1Cl [compound 201] | 8.32e-09 | 105 | 119.7 °C |  |  | > 2.5 |  |  | 

More lines, main results first:

IC50 (human mGlu2 receptor; [1]) [M] | Emax (human mGlu2 receptor) [%] | melting point | GTPγS - hmGluR2 anGT pIC50 (human mGlu2 receptor; [1]) | Structure (SMILES) | ED50 (Wiga rats) [mg/kg] | ED50 (rats; Route PO) [mg/kg] | ED50 (rats; Route SC) [mg/kg] | ED50 (Male Wiga Wistar rats; Route PO) [mg/kg] | ED50 (Male Wiga Wistar rats; Route SC) [mg/kg]
5.37e-07 | 103 |  |  | CCOc1ccc(N2C[C@H](C)n3ncc(-c4ccnc(C)c4)c3C2=O)cc1.Cl [compound 81, (7S)-5-(4-Ethoxyphenyl)-7-methyl-3-(2-methyl-4-pyridyl)-6,7-dihydropyrazolo[1,5-a]pyrazin-4-one hydrochloride salt] | 5 |  |  |  | 
6.31e-07 | 101 |  |  | Cc1cc(-c2cnn3c2C(=O)N(c2cc(F)cc(F)c2)C[C@@H]3C)ccn1 [compound 82] | 5 |  |  |  | 
2.75e-08 | 103 | 155.1 °C |  | C[C@H]1CN(c2ccc(C(F)(F)F)cc2)C(=O)c2c(-c3ccnc(C#N)c3)cnn21 [compound 127, 4-[(7S)-7-Methyl-4-oxo-5-[4-(trifluoromethyl)phenyl]-6,7-dihydropyrazolo[1,5-a]pyrazin-3-yl]pyridine-2-carbonitrile] |  | 1.99 |  |  | 
5.62e-06 | 100 | 149.7 °C |  | Cc1cc(-c2cnn3c2C(=O)N(c2cccc(C(C)O)c2)C[C@@H]3C)ccn1 (some centres unmarked) [compound 148] | 1.99 |  |  |  | 
1.32e-08 | 106 | 76.8 °C |  | COc1cc(-c2cnn3c2C(=O)N(c2ccc(C(F)(F)F)c(OC)c2)C[C@@H]3C)ccn1 [compound 180] |  | ≥ 2.5 |  |  | 
3.16e-09 | 111 | 125.82 °C (dec.) |  | CNc1cc(-c2cnn3c2C(=O)N(c2ccc(C(F)(F)F)c(OC)n2)C[C@@H]3C)ccn1 [compound 237] |  | 1.99 |  |  | 
